Source: ChEMBL document CHEMBL4825734, “Synthesis, activity and mechanism for double-ring conjugated enones” (Bioorg Med Chem Lett, 2021)
Each block holds one compound with its values, some of them ahead of it. The source made the active and inactive calls. The calls are words filed in the database; no cut-off is given here.

Columns and labels:
Toll-like receptor 4 = Toll-like receptor 4 (Homo sapiens, UniProt O00206); assay: Inhibition of TLR4 (unknown origin) by sandwich ELISA method
Synovial cell [1] = assay: Antiinflammatory activity in rat synovial cells assessed as downregulation of LPS-induced IL-1 beta production at 1 uM measured by ELISA; format: functional, cell-based
Synovial cell [2] = assay: Antiinflammatory activity in rat synovial cells assessed as decrease in LPS-induced TLR4 protein expression at 1 uM by DAPI staining based immunofluorescence microscopic analysis; format: functional
Synovial cell [3] = assay: Antiinflammatory activity in LPS-stimulated rat synovial cells assessed as increase in IkappaB protein expression at 1 uM by DAPI staining based immunofluorescence microscopic analysis; format: functional
Synovial cell [4] = assay: Inhibition of LPS-induced cytomorphological changes in rat synovial cells assessed as reduction in refractive ability with irregular spindle or round shaped cell body at 1 uM; format: functional, cell-based
Synovial cell [5] = assay: Antiinflammatory activity in rat synovial cells assessed as downregulation of LPS-induced IL-6 production at 1 uM measured by ELISA; format: functional, cell-based
Synovial cell [6] = assay: Antiinflammatory activity in rat synovial cells assessed as decrease in LPS-induced MyD88 protein expression at 1 uM by DAPI staining based immunofluorescence microscopic analysis; format: functional
Synovial cell [7] = assay: Inhibition of LPS-induced abnormal proliferation in rat synovial cells assessed as reduction in cell number at 1 uM; format: functional, cell-based
Synovial cell [8] = assay: Induction of apoptosis in rat synovial cells assessed as green coloured positive apoptotic cells with nuclear pyknosis and chromatin condensation at 1 uM in presence of LPS by TUNEL staining based microscopic analysis; format: functional
Synovial cell [9] = assay: Antiinflammatory activity in rat synovial cells assessed as downregulation of LPS-induced TNF-alpha production at 1 uM measured by ELISA; format: functional, cell-based
Synovial cell [10] = assay: Induction of apoptosis in rat synovial cells assessed as increase in caspase-3 expression at 1 uM in presence of LPS by DAPI staining based immunofluorescence microscopic analysis; format: functional
Synovial cell [11] = assay: Antiinflammatory activity in rat synovial cells assessed as decrease in LPS-induced NF-kappaB protein expression at 1 uM by DAPI staining based immunofluorescence microscopic analysis; format: functional

Chain of Toll-like receptor 4 (O00206 whole entry): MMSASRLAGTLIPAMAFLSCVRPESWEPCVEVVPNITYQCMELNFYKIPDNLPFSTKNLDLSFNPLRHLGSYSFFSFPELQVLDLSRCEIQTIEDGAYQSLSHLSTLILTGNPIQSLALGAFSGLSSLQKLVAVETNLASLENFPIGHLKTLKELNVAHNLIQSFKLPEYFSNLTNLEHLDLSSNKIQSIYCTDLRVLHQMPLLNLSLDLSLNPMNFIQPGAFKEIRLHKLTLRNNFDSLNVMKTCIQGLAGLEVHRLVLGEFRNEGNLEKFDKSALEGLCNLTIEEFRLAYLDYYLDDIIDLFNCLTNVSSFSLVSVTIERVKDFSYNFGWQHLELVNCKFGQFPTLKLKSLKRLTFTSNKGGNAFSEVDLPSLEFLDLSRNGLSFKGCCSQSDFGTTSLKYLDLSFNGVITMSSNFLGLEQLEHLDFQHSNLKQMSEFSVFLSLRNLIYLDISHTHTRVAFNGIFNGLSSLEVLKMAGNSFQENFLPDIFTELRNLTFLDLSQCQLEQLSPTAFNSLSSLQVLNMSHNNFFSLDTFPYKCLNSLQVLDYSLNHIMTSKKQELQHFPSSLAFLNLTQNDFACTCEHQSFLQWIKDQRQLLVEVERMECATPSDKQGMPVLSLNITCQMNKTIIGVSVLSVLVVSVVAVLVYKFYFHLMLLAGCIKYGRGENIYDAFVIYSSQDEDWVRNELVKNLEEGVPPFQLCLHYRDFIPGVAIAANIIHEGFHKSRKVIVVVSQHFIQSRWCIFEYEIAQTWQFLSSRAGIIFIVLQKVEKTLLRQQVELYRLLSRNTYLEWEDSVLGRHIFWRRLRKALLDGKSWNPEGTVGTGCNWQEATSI

SMILES: O=C1C=C2C(CC[C@@H]2Cl)C(=O)C1 (stereo partly specified)
IC50 (Toll-like receptor 4): 2710 nM

SMILES: CCOC(=O)[C@H]1CCCC2C(=O)CC(=O)C=C21 (stereo partly specified)
IC50 (Toll-like receptor 4): 1540 nM

SMILES: C[C@H]1CCC2C(=O)CCC(=O)C=C2C1 (stereo partly specified)
IC50 (Toll-like receptor 4): 2660 nM

SMILES: O=C1C=C2CCCCC2C(=O)CC1 (stereo unspecified)
IC50 (Toll-like receptor 4): 1850 nM

SMILES: CC(C)[C@H]1CCC2C(=O)CC(=O)C=C21 (stereo partly specified)
IC50 (Toll-like receptor 4): 2530 nM

SMILES: CC(C)[C@H]1CCC2C(=O)CCC(=O)C=C21 (stereo partly specified)
IC50 (Toll-like receptor 4): 2820 nM

Compounds with a lower IC50 (Toll-like receptor 4), results first:

IC50 (Toll-like receptor 4): 730 nM
SMILES: CCCC1CCC([C@@H]2CCC3=CC(=O)CC(=O)C3C2)CC1 (stereo partly specified)

IC50 (Toll-like receptor 4): 1040 nM
SMILES: CN(Cc1cnc2nc(N)nc(N)c2n1)c1ccc(C(=O)N[C@@H](CCC(=O)O)C(=O)O)cc1 [METHOTREXATE]
Activity (Synovial cell [1]): Active
Activity (Synovial cell [2]): Active
Activity (Synovial cell [3]): Active
inhibition (Synovial cell [4]): Active
Activity (Synovial cell [5]): Active
Activity (Synovial cell [6]): Active
inhibition (Synovial cell [7]): Active
Activity (Synovial cell [8]): Active
Activity (Synovial cell [9]): Active
Activity (Synovial cell [10]): Active
Activity (Synovial cell [11]): Active

IC50 (Toll-like receptor 4): 560 nM
SMILES: O=C1C=C2CC[C@@H](NC(=O)OCc3ccccc3)CC2C(=O)C1 (stereo partly specified)
Activity (Synovial cell [1]): Active
Activity (Synovial cell [2]): Active
Activity (Synovial cell [3]): Active
inhibition (Synovial cell [4]): Active
Activity (Synovial cell [5]): Active
Activity (Synovial cell [6]): Active
inhibition (Synovial cell [7]): Active
Activity (Synovial cell [8]): Active
Activity (Synovial cell [9]): Active
Activity (Synovial cell [10]): Active
Activity (Synovial cell [11]): Active
